Inhibition and IC50 data for eight compounds are collected here from ChEMBL document CHEMBL1649341, “Citrusosides A-D and furanocoumarins with cholinesterase inhibitory activity from the fruit peels of Citrus hystrix” (J Nat Prod, 2010).

For orientation: inhibition means the change of the read-out against control, counted positive when it falls. Broadly, the IC50 is the concentration that inhibits the measured activity by half. The low end stands for greater potency, the high end for weaker potency.

Structures are written as SMILES. Active and inactive are the calls of the source. The calls are words filed in the database; no cut-off is given here.

In assay [1] the target is Cholinesterase (Equus caballus) (UniProt P81908). Description: Inhibition of horse serum BChE at 65.1 uM after 2 mins by Ellman's reaction. In general terms: In Ellman's method for cholinesterases, released thiocholine reacts with DTNB.
The target of another assay is Cholinesterase (Equus caballus, UniProt P81908). In words: Inhibition of horse serum BChE after 2 mins by Ellman's reaction.
Assay [2] addresses Cholinesterase (Equus caballus) (UniProt P81908). In words: Inhibition of horse serum BChE at 7.2 mM after 2 mins by Ellman's reaction.
The target is the same in assay [3]. Description: Inhibition of horse serum BChE at 14.8 mM after 2 mins by Ellman's reaction.

Sequence of Cholinesterase (Equus caballus) (P81908 whole entry): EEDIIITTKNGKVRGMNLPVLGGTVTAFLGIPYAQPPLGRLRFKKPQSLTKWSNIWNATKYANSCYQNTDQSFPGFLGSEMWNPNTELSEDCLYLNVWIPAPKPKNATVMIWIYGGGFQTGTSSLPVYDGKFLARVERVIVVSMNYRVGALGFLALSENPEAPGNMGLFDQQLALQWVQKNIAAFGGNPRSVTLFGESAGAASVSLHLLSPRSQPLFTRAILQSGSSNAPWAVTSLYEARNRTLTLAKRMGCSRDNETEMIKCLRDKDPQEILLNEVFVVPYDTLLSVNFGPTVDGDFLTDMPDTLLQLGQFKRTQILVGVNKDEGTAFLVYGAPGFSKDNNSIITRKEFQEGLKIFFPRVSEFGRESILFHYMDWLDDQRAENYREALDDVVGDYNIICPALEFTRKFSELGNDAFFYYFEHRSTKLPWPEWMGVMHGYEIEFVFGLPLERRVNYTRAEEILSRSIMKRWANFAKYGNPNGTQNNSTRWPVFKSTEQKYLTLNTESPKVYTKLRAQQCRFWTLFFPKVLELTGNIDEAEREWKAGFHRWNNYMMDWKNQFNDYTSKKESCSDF
Sequence of Cholinesterase (P81908 whole entry): as above

In turn, `CC(C)(O)[C@H](O)COc1c2ccoc2cc2oc(=O)ccc12` showed an inhibition in assay [1] of 24.6%.

Regarding `C/C(=C\COc1c2ccoc2cc2oc(=O)ccc12)CC[C@@H](OC(=O)CC(C)(O)CC(=O)OC[C@H]1O[C@@H](OC(C)C)[C@H](O)[C@@H](O)[C@@H]1O)C(C)(C)O` (stereo partly drawn) [CITRUSOSIDE B], the half-inhibitory concentration (IC50) against Cholinesterase is 339 µM.

Compound `C/C(=C\COc1c2ccoc2cc2oc(=O)ccc12)CC[C@@H](O)C(C)(C)O` showed an IC50 against Cholinesterase of 15.4 µM.

For `CC(C)O[C@@H]1O[C@H](CO)[C@@H](O)[C@H](OC(=O)CC(C)(O)CC(=O)O[C@H](COc2c3ccoc3cc3oc(=O)ccc23)C(C)(C)O)[C@H]1O` (stereo partly drawn), in assay [2], the inhibition entry was “inactive”.

As to `CC(C)=CCC/C(C)=C/COc1c2ccoc2cc2oc(=O)ccc12`, the inhibition entry in assay [3] is “inactive”.

Take `CC(C)=CCC[C@@H](C)C/C=C/C(=O)OC[C@H]1O[C@@H](OC(C)C)[C@H](O)[C@@H](O)[C@@H]1O` [CITRUSOSIDE A]: the IC50 against Cholinesterase stood at 376 µM.

Regarding `COC(C)(C)[C@H](O)CC/C(C)=C/COc1c2ccoc2cc2oc(=O)ccc12`, on Cholinesterase, the IC50 stood at 11.2 µM.

In the case of `CC(C)=CCOc1c2ccoc2cc2oc(=O)ccc12` [ISOIMPERATORIN], at Cholinesterase, half-maximal inhibition (IC50) was put at 23.1 µM.
